Experimental data from patent US4328242A, “α-(3,4,5-Trimethoxyhenzoyl)thiopropionyl-glycine” (Ausoria Farmaceutici S.r.l., priority 1980, dated 1982).
Like-named read-outs stand apart in the source and are kept apart here.

Tests used:
[1] = Isothermic (accelerated) stability according to the method of Garret, TLC; type: physicochemical
Experimental: The tests of accelerated stability have been carried out with the substance in powder form, that is in glass vials, hermetically closed with a plastic screw cap and also with the substance dissolved in water, that is 500 mg in 10 cc in a transparent glass container of 20 cc capacity closed with a plastic screw cap.
The production of impurities, if any, due to degradation of the substance, has been determined by means of TLC.

rats [2] = assay: Regenerative action in partial hepatectomy; type: in vivo; conditions: partial hepatectomy, equimolar doses
rabbits = assay: Secretory activity in rabbits (bronchial secretion); type: in vivo; conditions: with respect to the control animals
Text: This activity has been determined using the method described by E. M. Boyd and C. F. Boyd, modified by P. C. Braga, et al described in Bronchial Hypersecretion, 1973. This activity has been determined every hour for a period of four hours by measuring the amount of bronchial secretion derived from the laryngo-tracheal organs and from the tracheo-bronchial organs of rabbits.

[3] = solid state as a dry powder and in solution, even at low relative humidity and room temperature; cited from earlier work
rats [4] = assay: Bronchosecretolithic activity in rats (sodium fluorescine method); type: in vivo; conditions: 135 mg/kg intraperitoneally (equimolar)
Experimental: The secretolithic activity of TBPG has been determined in comparison to α-mercaptopropionylglycine by administering 300 mg/kg of the substance intraperitonally and comparing with 135 mg/kg of α-mercaptopropionylglycine administered also intraperitoneally. The doses are equimolar. The method is based on the use of sodium fluorescine described by H. M. Mawatari (Experimental Studies on the Expectorant Action of Several Drugs, Kogoshima Daigakeu Igakeu Zasshi 27, 561, 1976).

Stability to moisture = type: physicochemical; conditions: open vials, 90% relative humidity, a month
Experimental: Samples of TBPG and MPG have been maintained in open vials at room temperature under conditions of 90% relative humidity and at 50° C. always with 90% relative humidity. After a month of exposure, the following observations have been made.

[5] = type: in vivo; conditions: rats, oral route, equimolar doses
Stability to light = type: physicochemical; conditions: powder form, light of a 60 watt lamp, three months
[6] = Stability at room temperature; type: physicochemical; conditions: closed containers, 36 months
Text: Five different samples of TBPG and α-mercaptopropionyl glycine have been preserved at room temperature in closed containers for a period of 36 months. At the end of the storage period, the following properties have been determined: […]

rats [7] = assay: Protective activity of the liver in the intoxication caused by CCl4 (BSF elimination); type: in vivo; conditions: rats intoxicated with CCl4; 90 and 180 mg/kg orally (equimolar)
Experimental: The animals, that is rats, were intoxicated with CCl4 for a period of seven days. They were treated during the same days and for a subsequent period of seven days with TBPG in the dose of 200 and 400 mg/kg orally and with α-mercaptopropionylglycine in the dose of 90 and 180 mg/kg orally. On the fifteenth day, the rats have been treated with BSF in the amount of 10 mg/kg intravenously.

[8] = Stability in solution (acidic, alkaline, oxidizing medium); type: physicochemical; conditions: 3% hydrogen peroxide, two months
[9] = Stability in reducing medium (SO2); type: physicochemical; conditions: 25 mg/ml, sodium bisulfite calculated as SO2, refluxed three hours
Experimental: In the presence of SO2 --solutions containing 25 mg/ml of TBPG and MPG respectively in the presence of sodium bisulfite calculated as SO2 are warmed and refluxed for a period of three hours.

guinea pigs [10] = assay: Protective activity in subacute bronchitis induced by inhalation of citric acid; type: in vivo; conditions: 7.5% citric acid inhalation, oral route, equimolar doses
rats [11] = assay: Action on the period of sleep induced by barbiturates; type: in vivo; conditions: rats intoxicated with CCl4; equimolar doses
Experimental: The activity of TBPG administered for two days in the dose of 200 and 400 mg/kg orally, has been determined on the basis of the reduction of the period of sleep induced by Nembutal on rats intoxicated with CCl4.

guinea pigs [12] = assay: Antibronchospastic activity, histamine aerosol; type: in vivo; conditions: equimolar doses
Text: Histamine administered in the form of an aerosol has caused in guinea pigs symptoms of broncho-spasm accompanied by convulsions, irreversible collapse and death.

rats [13] = assay: Protective action on chronic bronchitis induced by inhalation of SO2; type: in vivo; conditions: SO2 aerosol, equimolar dosages
Experimental: Bronchopulmonary lesions were induced in the animals by aerosolization of SO2. The animals were then treated for two weeks with TBPG in the dosage of 100 and 400 mg/kg by the oral route, rectal route and by inhalation.

[14] = Powder, 60°, read-out: Chromatographic Impurities
[15] = Powder, 70°, read-out: Chromatographic Impurities
[16] = Powder, 80°, read-out: Chromatographic Impurities
[17] = Solution (500 mg in 10 cc water), 60°, read-out: Chromatographic Impurities
[18] = Solution (500 mg in 10 cc water), 70°, read-out: Chromatographic Impurities
[19] = Solution (500 mg in 10 cc water), 80°, read-out: Chromatographic Impurities

CC(S)C(=O)NCC(=O)O (stereo not drawn) [α-mercaptopropionylglycine, 2-mercaptopropionylglycine]
Chromatographic Impurities ([1]; Powder, 60°, 320 hours): Traces | degraded at 960 h [1, 14]: 1% | degraded at 1280 h [1, 14]: 1% | degraded at 1600 h [1, 14]: 2% | Chromatographic Impurities ([1]; Powder, 70°, 120 hours): Traces | degraded at 240 h [1, 15]: 1% | degraded at 480 h [1, 15]: 2% | degraded at 45 h [1, 16]: 1% | degraded at 90 h [1, 16]: 1% | degraded at 180 h [1, 16]: 2% | Chromatographic Impurities ([1]; Solution (500 mg in 10 cc water), 60°, 0 hours): Absent | degraded at 320 h ([1]; Solution (500 mg in 10 cc water), 60°, 320 hours, read-out: Chromatographic Impurities): 0.5% | degraded at 640 h ([1]; Solution (500 mg in 10 cc water), 60°, 640 hours, read-out: Chromatographic Impurities): 0.6% | degraded at 960 h [1, 17]: 1% | degraded at 1280 h [1, 17]: 1.5% | degraded at 1600 h [1, 17]: 2.5% | degraded at 180 h [1, 18]: 1% | degraded at 240 h [1, 18]: 2% | degraded at 480 h [1, 18]: 2.5% | degraded at 45 h [1, 19]: 1% | degraded at 90 h [1, 19]: 2.5% | degraded at 120 h ([1]; Solution (500 mg in 10 cc water), 80°, 120 hours, read-out: Chromatographic Impurities): 1.5% | regeneration of the hepatic tissue, compared with TBPG (rats [2]): comparable | laryngo-tracheal secretion (rabbits): P 0.05 with respect to the control animals | tracheo-bronchial secretion (rabbits): n.s. | stability on storage [3]: low stability | bronchosecretolithic activity (rats [4]): 15.2% | stability to moisture (Stability to moisture; 50° C.): marked change in color, odor and taste accompanied by degradation products | stability to moisture (Stability to moisture; room temperature (t.a.)): significant change of organoleptic properties | concentration in the kidney [5]: high concentrations in the kidney | distribution in the organs [5]: sufficiently homogenous | stability to light (Stability to light): strong yellow color, due to degradation accompanied by an unpleasant odor and taste | organoleptic properties (taste, odor) [6]: undergo substantial change | elimination of BSF, compared with TBPG (rats [7]): comparable | stability in oxidizing medium [8]: the change is greater | stability in reducing medium [9]: undergoes substantial physico-chemical and organoleptic change | efficacy compared with TBPG (guinea pigs [10]): essentially overlapping | reduction of the period of sleep induced by Nembutal, compared with TBPG (rats [11]): essentially comparable | antibronchospastic efficacy compared with TBPG (guinea pigs [12]): efficacy comparable | protection of the bronchi and lungs, compared with TBPG (rats [13]): Analogous results
